# Where two headings read alike, the source gives them in different places.
# Key:
# [1] = test system: Phytophthora infestans (the causal agent of tomato late blight); experiment: whole plant or invertebrate; assay type: in vivo; conditions: for TLB Obsd (disease control rating): Table B; for pest or weed control at 0.08 ppm / pest or weed control at 0.4 ppm / pest or weed control at 2 ppm / pest or weed control at 10 ppm / pest or weed control at 40 ppm: Phytophthora infestans
# [2] = test system: Pseudoperonospora cubensis (the causal agent of cucumber downy mildew); experiment: Test B: cucumber downy mildew, preventive spray on cucumber seedlings; assay type: in vivo
# [3] = component (b) alone 10 ppm (Compound 1 0 ppm)
# [4] = component (b) alone 40 ppm (Compound 1 0 ppm)
# [5] = Table D, component (b) alone at 10 ppm
# [6] = Table D, component (b) alone at 40 ppm
# [7] = Table D, component (b) alone at 200 ppm
# [8] = Table D, component (b) alone at 1000 ppm
# [9] = Table D, component (b) alone at 2000 ppm
structure (smiles),measurement,setting,value
O=C(NCc1ncc(C(F)(F)F)cc1Cl)c1c(Cl)cccc1Cl [fluopicolide],TLB Obsd (disease control rating),[1]; component (b) alone 0.08 ppm,26%
same,TLB Obsd (disease control rating),[1]; component (b) alone 0.4 ppm,9%
same,TLB Obsd (disease control rating),[1]; component (b) alone 2 ppm,59%
same,TLB Obsd (disease control rating),[1]; component (b) alone 10 ppm,100%
same,TLB Obsd (disease control rating),[1]; component (b) alone 40 ppm,100%
same,TLB Obsd,"[1]; component (b) alone, 0.08 ppm",7%
same,TLB Obsd,"[1]; component (b) alone, 0.4 ppm",0%
same,TLB Obsd,"[1]; component (b) alone, 2 ppm",90%
same,TLB Obsd,"[1]; component (b) alone, 10 ppm",100%
same,TLB Obsd,"[1]; component (b) alone, 40 ppm",100%
same,CDM Obsd (disease control rating),"[2]; Table B, component (b) alone 0.08 ppm",47%
same,CDM Obsd (disease control rating),"[2]; Table B, component (b) alone 0.4 ppm",47%
same,CDM Obsd (disease control rating),"[2]; Table B, component (b) alone 2 ppm",94%
same,CDM Obsd (disease control rating),"[2]; Table B, component (b) alone 10 ppm",100%
same,CDM Obsd (disease control rating),"[2]; Table B, component (b) alone 40 ppm",100%
same,CDM Obsd,[2]; component (b) alone 0.08 ppm (Compound 1 0 ppm),33%
same,CDM Obsd,[2]; component (b) alone 0.4 ppm (Compound 1 0 ppm),79%
same,CDM Obsd,[2]; component (b) alone 2 ppm (Compound 1 0 ppm),96%
same,CDM Obsd,[2]; [3],100%
same,CDM Obsd,[2]; [4],100%
same,CDM Obsd,"[2]; component (b) alone, 0.08 ppm",0%
same,CDM Obsd,"[2]; component (b) alone, 0.4 ppm",0%
same,CDM Obsd,"[2]; component (b) alone, 2 ppm",83%
same,CDM Obsd,"[2]; component (b) alone, 10 ppm",100%
same,CDM Obsd,"[2]; component (b) alone, 40 ppm",100%
COc1ccc(C(=CC(=O)N2CCOCC2)c2ccc(Cl)cc2)cc1OC [dimethomorph],pest or weed control at 0.08 ppm,"[1]; read-out: TLB Obsd (disease control rating), Table B, component (b) alone 0.08 ppm",9%
same,pest or weed control at 0.4 ppm,"[1]; read-out: TLB Obsd (disease control rating), Table B, component (b) alone 0.4 ppm",9%
same,pest or weed control at 2 ppm,"[1]; read-out: TLB Obsd (disease control rating), Table B, component (b) alone 2 ppm",47%
same,pest or weed control at 10 ppm,"[1]; read-out: TLB Obsd (disease control rating), Table B, component (b) alone 10 ppm",86%
same,pest or weed control at 40 ppm,"[1]; read-out: TLB Obsd (disease control rating), Table B, component (b) alone 40 ppm",99%
same,pest or weed control at 0.08 ppm,"[1]; read-out: TLB Obsd (observed effect, tomato late blight), component (b) alone, 0.08 ppm",31%
same,pest or weed control at 0.4 ppm,"[1]; read-out: TLB Obsd (observed effect, tomato late blight), component (b) alone, 0.4 ppm",62%
same,pest or weed control at 2 ppm,"[1]; read-out: TLB Obsd (observed effect, tomato late blight), component (b) alone, 2 ppm",95%
same,pest or weed control at 10 ppm,"[1]; read-out: TLB Obsd (observed effect, tomato late blight), component (b) alone, 10 ppm",88%
same,pest or weed control at 40 ppm,"[1]; read-out: TLB Obsd (observed effect, tomato late blight), component (b) alone, 40 ppm",100%
same,pest or weed control at 0.08 ppm,"[2]; Pseudoperonospora cubensis, Table B, component (b) alone 0.08 ppm, read-out: CDM Obsd (disease control rating)",47%
same,pest or weed control at 0.4 ppm,"[2]; Pseudoperonospora cubensis, Table B, component (b) alone 0.4 ppm, read-out: CDM Obsd (disease control rating)",57%
same,pest or weed control at 2 ppm,"[2]; Pseudoperonospora cubensis, Table B, component (b) alone 2 ppm, read-out: CDM Obsd (disease control rating)",70%
same,pest or weed control at 10 ppm,"[2]; Pseudoperonospora cubensis, Table B, component (b) alone 10 ppm, read-out: CDM Obsd (disease control rating)",100%
same,pest or weed control at 40 ppm,"[2]; Pseudoperonospora cubensis, Table B, component (b) alone 40 ppm, read-out: CDM Obsd (disease control rating)",100%
same,pest or weed control at 0.08 µg/mL,"[2]; Pseudoperonospora cubensis, component (b) alone 0.08 ppm (Compound 1 0 ppm), read-out: CDM Obsd",26%
same,pest or weed control at 0.4 µg/mL,"[2]; Pseudoperonospora cubensis, component (b) alone 0.4 ppm (Compound 1 0 ppm), read-out: CDM Obsd",26%
same,pest or weed control at 2 µg/mL,"[2]; Pseudoperonospora cubensis, component (b) alone 2 ppm (Compound 1 0 ppm), read-out: CDM Obsd",83%
same,pest or weed control at 10 µg/mL,"[2]; Pseudoperonospora cubensis, component (b) alone 10 ppm (Compound 1 0 ppm), read-out: CDM Obsd",100%
same,pest or weed control at 40 µg/mL,"[2]; Pseudoperonospora cubensis, component (b) alone 40 ppm (Compound 1 0 ppm), read-out: CDM Obsd",100%
same,pest or weed control at 0.08 ppm,"[2]; Pseudoperonospora cubensis, component (b) alone, 0.08 ppm, read-out: CDM Obsd (observed effect, cucumber downy mildew)",52%
same,pest or weed control at 0.4 ppm,"[2]; Pseudoperonospora cubensis, component (b) alone, 0.4 ppm, read-out: CDM Obsd (observed effect, cucumber downy mildew)",54%
same,pest or weed control at 2 ppm,"[2]; Pseudoperonospora cubensis, component (b) alone, 2 ppm, read-out: CDM Obsd (observed effect, cucumber downy mildew)",88%
same,pest or weed control at 10 ppm,"[2]; Pseudoperonospora cubensis, component (b) alone, 10 ppm, read-out: CDM Obsd (observed effect, cucumber downy mildew)",100%
same,pest or weed control at 40 ppm,"[2]; Pseudoperonospora cubensis, component (b) alone, 40 ppm, read-out: CDM Obsd (observed effect, cucumber downy mildew)",100%
CCO[PH](=O)O [fosetyl-aluminum],TLB Obsd,[1]; [5],0%
same,TLB Obsd,[1]; [6],20%
same,TLB Obsd,[1]; [7],65%
same,TLB Obsd,[1]; [8],97%
same,TLB Obsd,[1]; [9],100%
same,"TLB Obsd (observed effect, tomato late blight)","[1]; component (b) alone, 10 ppm",0
same,"TLB Obsd (observed effect, tomato late blight)","[1]; component (b) alone, 40 ppm",0
same,"TLB Obsd (observed effect, tomato late blight)","[1]; component (b) alone, 200 ppm",50
same,"TLB Obsd (observed effect, tomato late blight)","[1]; component (b) alone, 1000 ppm",99
same,"TLB Obsd (observed effect, tomato late blight)","[1]; component (b) alone, 2000 ppm",100
same,CDM Obsd,[2]; [5],47%
same,CDM Obsd,[2]; [6],47%
same,CDM Obsd,[2]; [7],47%
same,CDM Obsd,[2]; [8],98%
same,CDM Obsd,[2]; [9],100%
same,CDM Obsd,[2]; [3],47%
same,CDM Obsd,[2]; [4],47%
same,CDM Obsd,[2]; component (b) alone 200 ppm (Compound 1 0 ppm),63%
same,CDM Obsd,[2]; component (b) alone 1000 ppm (Compound 1 0 ppm),98%
same,CDM Obsd,[2]; component (b) alone 2000 ppm (Compound 1 0 ppm),100%
same,"CDM Obsd (observed effect, cucumber downy mildew)","[2]; component (b) alone, 10 ppm",0
same,"CDM Obsd (observed effect, cucumber downy mildew)","[2]; component (b) alone, 40 ppm",0
same,"CDM Obsd (observed effect, cucumber downy mildew)","[2]; component (b) alone, 200 ppm",0
same,"CDM Obsd (observed effect, cucumber downy mildew)","[2]; component (b) alone, 1000 ppm",68
same,"CDM Obsd (observed effect, cucumber downy mildew)","[2]; component (b) alone, 2000 ppm",73

# Reference: patent US8449898B2 (priority 2007, dated 2013)
